Values after ≈ are worked out from the molar mass of the structure shown.
Columns and labels:
Format in all cases: binding
[1] = system: rabbit anti-SDMA antibody in serum, Rabbit # 154 (SDMA-KLH immunogen); experiment: Competitive ELISA, specificity of rabbit anti-SDMA antiserum, Rabbit #154; details: Rabbit # 154 antiserum (1.25K); for % Cross Reactivity: IC50 of SDMA / IC50 of competitor x 100; for IC 50: competition with SDMA-HRP conjugate, absorbance 450 nm
Method: (§1) The immunization protocol for generating the anti-SDMA antibodies was carried out according to the following protocol. Six California breed rabbits were immunized with an SDMA-conjugate. Three of the six rabbits were immunized with SDMA conjugated with BSA (rabbits #155, 156 and 157) and the other three rabbits were immunized with SDMA conjugated with KLH (rabbits #152, 153 and 154) (prepared as described in Example 2). For primary immunizations, each rabbit was injected with 0.5 mg of the SDMA conjugate in 1 ml of phosphate buffered saline (PBS) mixed with 1 ml of Freund's complete adjuvant. Each rabbit received 20-30 intradermal injections on their shaved back. Each rabbit was boosted with 0.25 mg of immunogen in 1 ml PBS mixed with equal volume of Freund's incomplete adjuvant in the hind legs. The boosting shots were given each month after the primary injection. Test bleeds of 5 ml blood were taken from each rabbit 7-10 days after each boost. Production bleeds of 40 ml were taken from each rabbit after the third booster shot, when the antisera titer was greater than about 1:2000. Antiserum titer is the dilution of antiserum that generates the steepest calibration curve for the assay.
(§2) In order to assess the specificity of the antibodies obtained by the procedures described in Example 3 above, their reactivity to SDMA, ADMA, L-arginine, and/or N-methylarginine was measured in a competitive ELISA assay (Table 1).
(§3) ADMA-2HCl, SDMA-2HCl, N-methylarginine acetate (Sigma, Cat. No. M7033) or L-arginine (Sigma, Cat. No. A5006) were each dissolved in PBS to make stock solutions at 1 mg/ml. From these stock solutions, working solutions at 100 μg/ml, 10 μg/ml and 1 μg/ml were prepared in PBS.
(§4) […] After a 30 minutes incubation period at room temperature, the wells were washed 4 times with PBST (Phosphate Buffered Saline, 0.05% Tween).
(§5) 100 μl of 3,3′,5,5′-Tetramethylbenzidine (commercially available from Promega Corporation of Madison, WI) was subsequently added. Following a 30 minutes incubation period at room temperature, 100 μl of stop solution (1 N HCl) was added and the absorbance was measured at 450 nm using a BioTek ELX 808 (Winooski, VT) plate reader. The data was subjected to quantification using Softmax software (Molecular Devices, Sunnyvale, CA).
(§6) The absorbance values obtained with 0 μg/mL, 1 μg/mL, 10 μg/mL, and 100 μg/mL of ADMA, SDMA, N-methylarginine or L-arginine, respectively, were determined and plotted. The concentration of SDMA at which the absorbance value was reduced by 50% (relative to the maximum absorbance obtained at 0 μg/mL SDMA; i.e. IC50) was divided by each of the concentrations of ADMA, N-methylarginine or L-arginine, respectively, at which the absorbance value was reduced by 50% (IC50). The resulting value was multiplied by 100 to obtain the value “% cross-reactivity”.

[2] = system: rabbit anti-SDMA antibody in serum, Rabbit # 157 (SDMA-BSA immunogen); experiment: Competitive ELISA, specificity of rabbit anti-SDMA antiserum, Rabbit #157; details: Rabbit # 157 antiserum (1:15K); for % Cross Reactivity: IC50 of SDMA / IC50 of competitor x 100; for IC 50: competition with SDMA-HRP conjugate, absorbance 450 nm
Method: as §1, §2, §3, §4, §5, §6

[3] = system: rabbit anti-SDMA antibody in serum, Rabbit # 156 (SDMA-BSA immunogen); experiment: Competitive ELISA, specificity of rabbit anti-SDMA antiserum, Rabbit #156; details: Rabbit # 156 antiserum (1:20K); for % Cross Reactivity: IC50 of SDMA / IC50 of competitor x 100; for IC 50: competition with SDMA-HRP conjugate, absorbance 450 nm
Method: as §1, §2, §3, §4, §5, §6

[4] = system: rabbit anti-SDMA antibody in serum, Rabbit # 152 (SDMA-KLH immunogen); experiment: Competitive ELISA, specificity of rabbit anti-SDMA antiserum, Rabbit #152; details: Rabbit # 152 antiserum (1:5K); for % Cross Reactivity: IC50 of SDMA / IC50 of competitor x 100; for IC 50: competition with SDMA-HRP conjugate, absorbance 450 nm
Method: as §1, §2, §3, §4, §5, §6

[5] = system: rabbit anti-SDMA antibody in serum, Rabbit # 153 (SDMA-KLH immunogen); experiment: Competitive ELISA, specificity of rabbit anti-SDMA antiserum, Rabbit #153; details: Rabbit # 153 antiserum (1:2.5K); for % Cross Reactivity: IC50 of SDMA / IC50 of competitor x 100; for IC 50: competition with SDMA-HRP conjugate, absorbance 450 nm
Method: as §1, §2, §3, §4, §5, §6

[6] = system: rabbit anti-SDMA antibody in serum, Rabbit # 155 (SDMA-BSA immunogen); experiment: Competitive ELISA, specificity of rabbit anti-SDMA antiserum, Rabbit #155; details: Rabbit # 155 antiserum (1:3K); for % Cross Reactivity: IC50 of SDMA / IC50 of competitor x 100; for IC 50: competition with SDMA-HRP conjugate, absorbance 450 nm
Method: as §1, §2, §3
(§7) 50 μl of the SDMA-HRP conjugate (as described in Example 5 below), 50 μl of ADMA, SDMA, N-methylarginine or L-arginine (at concentrations from 1-100 μg/ml as described above), and 50 μl of rabbit anti-SDMA antibody in serum (1:3000 titer) were sequentially added to an individual well in a 96-well polystyrene microwell plate, precoated with sheep anti-rabbit IgG (commercially available from Beacon Analytical Systems Inc. of Portland, ME). After a 30 minutes incubation period at room temperature, the wells were washed 4 times with PBST (Phosphate Buffered Saline, 0.05% Tween).
as §5, §6

[7] = system: polyclonal antibody from Rabbit No. 154 (anti-SDMA); experiment: Competitive ELISA, specificity with greater stringency, polyclonal antibody from Rabbit No. 154; details: polyclonal antibody from Rabbit No. 154, determined with greater stringency
Method: as §7, §5, §6
In another experiment, using only polyclonal antibody from Rabbit No. 154, the specificity of the antibody was determined with greater stringency by the method described above.

| Compound | % Cross Reactivity [1] [%] | IC 50 [1] [µg/mL] | % Cross Reactivity [2] [%] | IC 50 [2] [µg/mL] | % Cross Reactivity [3] [%] | IC 50 [3] [µg/mL] | % Cross Reactivity [4] [%] | IC 50 [4] [µg/mL] | % Cross Reactivity [5] [%] | IC 50 [5] [µg/mL] | % Cross Reactivity [6] [%] | IC 50 [6] [µg/mL] | Specificity (Cross-Reactivity) Rabbit No. 154 Cross-reactivity [7] [%] |
| --- | --- | --- | --- | --- | --- | --- | --- | --- | --- | --- | --- | --- | --- |
| CNC(=N)NCCCC(N)C(=O)O (stereo not drawn) [N-MMA, N-monomethylarginine] | <1 | >100 | <1 | >100 | <1 | >100 | <1 | >100 | <1 | >100 | <1 | 79 (≈ 420 µM) | – |
| CN(C)C(=N)NCCCC(N)C(=O)O (stereo not drawn) [ADMA, asymmetrical dimethylarginine] | <1 | >100 | <1 | >100 | <1 | >100 | <1 | >100 | <1 | >100 | <1 | >100 | <0.2 |
| N=C(N)NCCC[C@H](N)C(=O)O [L-Arginine, L-arginine] | <1 | >100 | <1 | >100 | <1 | >100 | <1 | >100 | <1 | >100 | <1 | >100 | <0.01 |
| C/N=C(\NC)NCCCC(N)C(=O)O (stereo not drawn) [SDMA, symmetrical dimethylarginine] | 100 | 0.49 (≈ 2.42 µM) | 100 | 1.6 (≈ 7.91 µM) | 100 | 1.3 (≈ 6.43 µM) | 100 | 1.10 (≈ 5.44 µM) | 100 | 0.65 (≈ 3.21 µM) | 100 | 0.73 (≈ 3.61 µM) | 100 |
